The record followed here is US9920010B2, “CXCR7 receptor modulators” (IDORSIA PHARMACEUTICALS LTD, priority 2013, dated 2018).

The target in the experiment is T1, CXCR7 (Homo sapiens, UniProt P25106).
T1 construct: host or cells: CHO-K1 (PathHunter CHO-K1 CXCR7 b-arrestin cell line, stably transfected)
The experiment is described as follows: PathHunter CHO-K1 CXCR7 b-arrestin recruitment assay (CXCR7 agonistic activity). It is filed as cell-based. Particulars: PathHunter CHO-K1 CXCR7 b-arrestin cell line. An outline of the steps: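 Stable CHO-K1 line with C-terminally ProLink-tagged CXCR7 and β-arrestin 2–EA fusion; β-arrestin recruitment restores β-gal activity, read by chemiluminescence after 1 h RT detection. Cells seeded 24 h, starved in OPTIMEM 3–4 h, exposed to compounds 90 min at 37 °C in HBSS/HEPES/BSA. Geometric-mean EC50 from repeated measurements.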

Structures are written as SMILES.

T1 sequence (P25106 whole entry): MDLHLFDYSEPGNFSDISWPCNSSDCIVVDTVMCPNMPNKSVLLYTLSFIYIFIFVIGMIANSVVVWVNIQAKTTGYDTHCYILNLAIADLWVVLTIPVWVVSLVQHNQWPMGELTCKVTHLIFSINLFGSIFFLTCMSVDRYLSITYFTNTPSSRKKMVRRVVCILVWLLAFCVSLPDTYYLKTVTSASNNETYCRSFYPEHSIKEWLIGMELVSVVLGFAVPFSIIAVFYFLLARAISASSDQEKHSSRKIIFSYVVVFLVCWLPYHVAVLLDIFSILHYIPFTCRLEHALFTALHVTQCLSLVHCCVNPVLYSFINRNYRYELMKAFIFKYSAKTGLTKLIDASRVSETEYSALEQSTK
T1 sequence (P32121 whole entry partner): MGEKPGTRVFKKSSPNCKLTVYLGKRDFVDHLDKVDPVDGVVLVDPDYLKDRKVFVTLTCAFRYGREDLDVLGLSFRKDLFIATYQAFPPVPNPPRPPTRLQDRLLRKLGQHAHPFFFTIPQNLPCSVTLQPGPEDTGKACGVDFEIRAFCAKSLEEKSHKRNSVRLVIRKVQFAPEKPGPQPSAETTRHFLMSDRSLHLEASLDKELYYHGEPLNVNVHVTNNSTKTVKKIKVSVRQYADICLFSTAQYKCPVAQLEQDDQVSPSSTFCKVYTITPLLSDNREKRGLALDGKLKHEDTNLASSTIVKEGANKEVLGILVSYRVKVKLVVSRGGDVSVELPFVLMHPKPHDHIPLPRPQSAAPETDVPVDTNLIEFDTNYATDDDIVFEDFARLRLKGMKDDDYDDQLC

Consider `CN(C)CCN(Cc1ccccc1)C(=O)CNc1cccc2c1CCN(CC(C)(C)C)C2` [compound 116], for which the EC50 came to 96 nM. That is a double-digit nanomolar value. Compound `CN(C)CCN(Cc1ncccc1C(F)(F)F)C(=O)CNc1ccc(F)c2c1CCN(CC1CC1)C2` [Example 289, 2-(2-Cyclopropylmethyl-8-fluoro-1,2,3,4-tetrahydro-isoquinolin-5-ylamino)-N-(2-dimethylamino-ethyl)-N-(3-trifluoromethyl-pyridin-2-ylmethyl)-acetamide] had a half-maximal effective concentration (EC50) of 16 nM. In the case of `CN(C)CCN(Cc1ccccc1)C(=O)COc1cccc2c1CCN(C(=O)OC(C)(C)C)C2` [Example 101, 5-{[Benzyl-(2-dimethylamino-ethyl)-carbamoyl]-methoxy}-3,4-dihydro-1H-isoquinoline-2-carboxylic acid tert-butyl ester] it was 148 nM. For `O=C(/C=C/c1cccc2c1CCN(CC1CC1)C2)N(Cc1ccccc1)C1CCS(=O)(=O)C1` (stereo not shown) [compound 147], the EC50 came to 16 nM. In the case of `CNCCN(Cc1ccccc1C(F)(F)F)C(=O)CNc1cccc2c1CCN(C(=O)OC(C)C)C2` [compound 399] it was 64 nM. Consider `CC(C)(O)CN(Cc1ncccc1Cl)C(=O)/C=C/c1cccc2c1CCN(CC1CC1)C2` [Example 329, (E)-N-(3-Chloro-pyridin-2-ylmethyl)-3-(2-cyclopropylmethyl-1,2,3,4-tetrahydro-isoquinolin-5-yl)-N-(2-hydroxy-2-methyl-propyl)-acrylamide], for which it took 23 nM to reach a half-maximal effect (EC50).

As for `CCN1CCc2cccc(/C=C/C(=O)N(CCN(C)C)Cc3ccccc3C(F)(F)F)c2C1` [compound 550, (E)-N-(2-Dimethylamino-ethyl)-3-(2-ethyl-1,2,3,4-tetrahydro-isoquinolin-8-yl)-N-(2-trifluoromethyl-benzyl)-acrylamide], a half-maximal effect (EC50) was put at 2 nM. `CCN1Cc2cccc(NCC(=O)N(CCN3CCCC3)Cc3ccccc3C(F)(F)F)c2CC1=O` [Example 311, 2-(2-Ethyl-3-oxo-1,2,3,4-tetrahydro-isoquinolin-5-ylamino)-N-(2-pyrrolidin-1-yl-ethyl)-N-(2-trifluoromethyl-benzyl)-acetamide] returned an EC50 of 24 nM. `CN(C)CCN(Cc1ccccc1Cl)C(=O)CNc1cccc2c1C(C)(C)CN(CC1CC1)C2` [Example 577, N-(2-Chloro-benzyl)-2-(2-cyclopropylmethyl-4,4-dimethyl-1,2,3,4-tetrahydro-isoquinolin-5-ylamino)-N-(2-dimethylamino-ethyl)-acetamide] displayed a half-maximal effective concentration (EC50) of 0.9 nM. This EC50 lies about 27-fold lower than the previous one. Turning to `CN(C)CCN(Cc1ccccc1)C(=O)/C=C/c1cccc2c1CCN(CC1CC1)C2` [compound 143, (E)-N-Benzyl-3-(2-cyclopropylmethyl-1,2,3,4-tetrahydro-isoquinolin-5-yl)-N-(2-dimethylamino-ethyl)-acrylamide], the 50% effective concentration (EC50) was 3 nM. Against the preceding compound, the EC50 is about 3.3-fold higher. For the compound `CN(C)CCN(Cc1cnc(N(C)C)nc1)C(=O)CNc1cccc2c1CCN(CC1CC1)C2` [Example 272, 2-(2-Cyclopropylmethyl-1,2,3,4-tetrahydro-isoquinolin-5-ylamino)-N-(2-dimethylamino-ethyl)-N-(2-dimethylamino-pyrimidin-5-ylmethyl)-acetamide], the EC50 was found to be 230 nM. Consider `COCCN1CCc2c(cccc2NCC(=O)N(CCN(C)C)Cc2ccccc2C(F)(F)F)C1` [Example 359, N-(2-(dimethylamino)ethyl)-2-((2-(2-methoxyethyl)-1,2,3,4-tetrahydroisoquinolin-5-yl)amino)-N-(2-(trifluoromethyl)benzyl)acetamide], for which the EC50 was 9 nM.

In turn, `CCN1CCc2cccc(NCC(=O)N(CCN(C)C)Cc3ccc(C)cc3)c2C1` [compound 496] gave an EC50 of 79 nM.

In turn, `CC(=O)N1CCc2c(cccc2NCC(=O)N(CCN(C)C)Cc2ccccc2)C1` [Example 108, 2-(2-Acetyl-1,2,3,4-tetrahydro-isoquinolin-5-ylamino)-N-benzyl-N-(2-dimethylamino-ethyl)-acetamide] had an EC50 of 52 nM. For the compound `O=C(CNc1cccc2c1CCN(CC1CC1)C2)N(CCN1CCCC1)Cc1ccc(F)cc1F` [Example 51, 2-(2-Cyclopropylmethyl-1,2,3,4-tetrahydro-isoquinolin-5-ylamino)-N-(2,4-difluoro-benzyl)-N-(2-pyrrolidin-1-yl-ethyl)-acetamide], the EC50 is 3 nM.

`O=C(CNc1cccc2c1CCN(CC1CC1)C2)N(CCC(F)(F)F)Cc1ccccc1C(F)(F)F` [Example 224, 2-(2-Cyclopropylmethyl-1,2,3,4-tetrahydro-isoquinolin-5-ylamino)-N-(2-trifluoromethyl-benzyl)-N-(3,3,3-trifluoro-propyl)-acetamide] came in with an EC50 of 52 nM. Compared with the last compound, the EC50 is about 17-fold higher. For the compound `CC1Cc2c(cccc2NCC(=O)N(CCN(C)C)Cc2ccccc2C(F)(F)F)CN1CC1CC1` (racemic) [Example 212, rac-2-((2-(Cyclopropylmethyl)-3-methyl-1,2,3,4-tetrahydroisoquinolin-5-yl)amino)-N-(2-(dimethylamino)ethyl)-N-(2-(trifluoromethyl)benzyl)acetamide], it took 6 nM to reach a half-maximal effect (EC50). `CN(C)CCN(Cc1ccccc1C(F)(F)F)C(=O)CNc1cccc2c1CN(S(C)(=O)=O)CC2` [Example 544, N-(2-Dimethylamino-ethyl)-2-(2-methanesulfonyl-1,2,3,4-tetrahydro-isoquinolin-8-ylamino)-N-(2-trifluoromethyl-benzyl)-acetamide] had a half-maximal effective concentration (EC50) of 34 nM. For `C/C(=C\c1cccc2c1CCN(C(=O)OC(C)(C)C)C2)C(=O)N(CCN(C)C)Cc1ccccc1C(F)(F)F` [Example 97, 5-{(E)-2-[(2-Dimethylamino-ethyl)-(2-trifluoromethyl-benzyl)-carbamoyl]-propenyl}-3,4-dihydro-1H-isoquinoline-2-carboxylic acid tert-butyl ester], it took 365 nM to reach a half-maximal effect (EC50). Regarding `CCN(CCN(Cc1ccccc1C(F)(F)F)C(=O)CNc1cccc2c1CCN(CC1CC1)C2)CC1(C)COC1` [compound 453], the EC50 turned out to be 6 nM. This EC50 is about 61-fold lower than that of the compound before. `CN(C)CCN(Cc1ccccc1C(F)(F)F)C(=O)CNc1cccc2c1CCN(C(=O)[C@@H]1C[C@@H]1F)C2` (single isomer, unassigned) [Example 363b, N-(2-Dimethylamino-ethyl)-2-[2-((1 S*,2S*)-2-fluoro-cyclopropanecarbonyl)-1,2,3,4-tetrahydro-isoquinolin-5-ylamino]-N-(2-trifluoromethyl-benzyl)-acetamide] displayed an EC50 of 5 nM. In the case of `CC(C)(C)OC(=O)N1CCC(N(Cc2ccccc2C(F)(F)F)C(=O)CNc2cccc3c2CCN(CC2CC2)C3)C1` (stereo not shown) [Example 254, 3-[[2-(2-Cyclopropylmethyl-1,2,3,4-tetrahydro-isoquinolin-5-ylamino)-acetyl]-(2-trifluoromethyl-benzyl)-amino]-pyrrolidine-1-carboxylic acid tert-butyl ester], the EC50 turned out to be 161 nM.

`CC(C)(O)CN(Cc1ncccc1Cl)C(=O)/C=C/c1cccc2c1CCN(C(=O)[C@H]1C[C@H]1F)C2` (racemic) [Example 331, rac-(E)-N-(3-Chloro-pyridin-2-ylmethyl)-3-[2-((1R*,2R*)-2-fluoro-cyclopropanecarbonyl)-1,2,3,4-tetrahydro-isoquinolin-5-yl]-N-(2-hydroxy-2-methyl-propyl)-acrylamide] had an EC50 of 314 nM. Compared with the last compound, the EC50 is about 2-fold higher.

Regarding `COCCN1CCc2c(CCC(=O)N(CCN(C)C)Cc3ncccc3Cl)cccc2C1` [Example 346, N-(3-Chloro-pyridin-2-ylmethyl)-N-(2-dimethylamino-ethyl)-3-[2-(2-methoxy-ethyl)-1,2,3,4-tetrahydro-isoquinolin-5-yl]-propionamide], a half-maximal effect (EC50) was put at 73 nM. In the case of `CCC(=O)N1CCc2c(cccc2NCC(=O)N(CCN(C)C)Cc2cccc(C(F)(F)F)c2)C1` [Example 33, N-(2-Dimethylamino-ethyl)-2-(2-propionyl-1,2,3,4-tetrahydro-isoquinolin-5-ylamino)-N-(3-trifluoromethyl-benzyl)-acetamide] it was 16 nM; in that of `CN(C)CCN(Cc1ccccc1C(F)(F)F)C(=O)NCc1cccc2c1CCN(CC1CC1)C2` [Example 568, 3-(2-Cyclopropylmethyl-1,2,3,4-tetrahydro-isoquinolin-5-ylmethyl)-1-(2-dimethylamino-ethyl)-1-(2-trifluoromethyl-benzyl)-urea], 29 nM. `CN(C)CCN(Cc1ccccc1Br)C(=O)CNc1cccc2c1CCN(CC1CC1)C2` [Example 234, N-(2-Bromo-benzyl)-2-(2-cyclopropylmethyl-1,2,3,4-tetrahydro-isoquinolin-5-ylamino)-N-(2-dimethylamino-ethyl)-acetamide] came in with an EC50 of 3 nM. The result for `CN(C)CCN(Cc1ccccc1)C(=O)CNc1cccc2c1CCN(C(=O)OCc1ccccc1)C2` [compound 131] reads 450 nM; that for `Cc1cccnc1CN(CCC(C)(C)C)C(=O)CNc1cccc2c1CCN(CC1CC1)C2` [Example 276, 2-(2-Cyclopropylmethyl-1,2,3,4-tetrahydro-isoquinolin-5-ylamino)-N-(3,3-dimethyl-butyl)-N-(3-methyl-pyridin-2-ylmethyl)-acetamide], 17 nM. With `CCOC(=O)CN(Cc1ccccc1)C(=O)CNc1cccc2c1CCN(CC1CC1)C2` [Example 71, {Benzyl-[2-(2-cyclopropylmethyl-1,2,3,4-tetrahydro-isoquinolin-5-ylamino)-acetyl]-amino}-acetic acid ethyl ester], the response was half-maximal at 326 nM (EC50). In the case of `CN(C)CCN(Cc1ccccc1C(F)(F)F)C(=O)CNc1cccc2c1CCN(C(=O)[C@H]1C[C@H]1F)C2` (single isomer, unassigned) [Example 363a, N-(2-Dimethylamino-ethyl)-2-[2-((1R*,2R*)-2-fluoro-cyclopropanecarbonyl)-1,2,3,4-tetrahydro-isoquinolin-5-ylamino]-N-(2-trifluoromethyl-benzyl)-acetamide] it was 6 nM.
